Patent publication US20070254951A1, “HIGH CONCENTRATION DINOTEFURAN FORMULATIONS” (priority 2006, published 2007)
Like-named read-outs stand apart in the source and are kept apart here.

Experiments:
[1] = formulation of Example 9
Excerpt: The formulation of Example 9 was stored under variable temperatures up to 2 years to determine the stability of dinotefuran in solution.

[2] = Excerpt: It is also desirable that the resulting formulation be stable. […] This is important because these conditions can be met in commerce. The crystallization would reduce the amount of insecticide in solution and reduce the efficacy of the solution applied to the animal.

For CNC(=N[N+](=O)[O-])NCC1CCOC1 (stereo not drawn) [Dinotefuran, 1-{(tetrahydro-3-furanyl)methyl}-2-nitro-3-methylguanidine], which “Dinotefuran concentration in solution (average)” value ([1]; 40° F., 1 Mo) is on record?
Its value is 15.03 percent by weight.

What about the “Dinotefuran concentration in solution (average)” value ([1]; 110° F., 3 Mo) of the same compound?
Its value is 15.33 percent by weight.

And the “Dinotefuran concentration in solution (average)” value ([1]; 130° F., 1 Mo)?
The value was 15.22 percent by weight.

And the “Dinotefuran concentration in solution (average)” value ([1]; F/T, 1 Mo)?
The value was 15.05 percent by weight.

And the “Dinotefuran concentration in solution (average)” value ([1]; INITIAL)?
The value was 15.43 percent by weight.

What about the “Dinotefuran concentration in solution (average)” value ([1]; RT (25° C.), 3 Mo) of the same compound?
Its value is 15.17 percent by weight.

And the “Dinotefuran concentration in solution (average)” value ([1]; RT, 1 Yr)?
Its value is 15.24 percent by weight.

And the “Dinotefuran concentration in solution (average)” value ([1]; RT, 2 Yrs)?
The value was 15.735 percent by weight.

What about the “Dinotefuran concentration in solution (average)” value ([1]; RT, 6 Mo) of the same compound?
The value was 15.06 percent by weight.

What about the “increase in concentration by including methoprene” value ([2]; methoprene at about 0.8% and below, compared to a similar formulation without methoprene) of the same compound?
The value was roughly 50%.

What about the “increase in concentration achievable by including pyriproxyfen at low levels” value ([2]; phenyl methanol formulation, no crystal formation at 0° F. during a 1 month period) of the same compound?
The value was roughly 50%.

And the “dinotefuran concentration that will crystallize at 0° F. within a few days” value ([2]; typically, 0° F.)?
Its value is “over 8%”.
